Reference: US11739098B2 (BRISTOL-MYERS SQUIBB COMPANY, priority 2017, dated 2023)

Assays:
Format in all cases: cell-based
human TLR9 = target: T1, human TLR9 (Homo sapiens, UniProt Q9NR96); experiment: TLR9 inhibition reporter assay (HEK-Blue cells, SEAP reporter, ODN2006 stimulation); conditions: HEK-Blue cells overexpressing human TLR9, SEAP reporter, ODN2006 5 nM
T1 construct: host or cells: HEK-Blue cells (HEK293-derived reporter line)
T1 sequence (Q9NR96 26-1032): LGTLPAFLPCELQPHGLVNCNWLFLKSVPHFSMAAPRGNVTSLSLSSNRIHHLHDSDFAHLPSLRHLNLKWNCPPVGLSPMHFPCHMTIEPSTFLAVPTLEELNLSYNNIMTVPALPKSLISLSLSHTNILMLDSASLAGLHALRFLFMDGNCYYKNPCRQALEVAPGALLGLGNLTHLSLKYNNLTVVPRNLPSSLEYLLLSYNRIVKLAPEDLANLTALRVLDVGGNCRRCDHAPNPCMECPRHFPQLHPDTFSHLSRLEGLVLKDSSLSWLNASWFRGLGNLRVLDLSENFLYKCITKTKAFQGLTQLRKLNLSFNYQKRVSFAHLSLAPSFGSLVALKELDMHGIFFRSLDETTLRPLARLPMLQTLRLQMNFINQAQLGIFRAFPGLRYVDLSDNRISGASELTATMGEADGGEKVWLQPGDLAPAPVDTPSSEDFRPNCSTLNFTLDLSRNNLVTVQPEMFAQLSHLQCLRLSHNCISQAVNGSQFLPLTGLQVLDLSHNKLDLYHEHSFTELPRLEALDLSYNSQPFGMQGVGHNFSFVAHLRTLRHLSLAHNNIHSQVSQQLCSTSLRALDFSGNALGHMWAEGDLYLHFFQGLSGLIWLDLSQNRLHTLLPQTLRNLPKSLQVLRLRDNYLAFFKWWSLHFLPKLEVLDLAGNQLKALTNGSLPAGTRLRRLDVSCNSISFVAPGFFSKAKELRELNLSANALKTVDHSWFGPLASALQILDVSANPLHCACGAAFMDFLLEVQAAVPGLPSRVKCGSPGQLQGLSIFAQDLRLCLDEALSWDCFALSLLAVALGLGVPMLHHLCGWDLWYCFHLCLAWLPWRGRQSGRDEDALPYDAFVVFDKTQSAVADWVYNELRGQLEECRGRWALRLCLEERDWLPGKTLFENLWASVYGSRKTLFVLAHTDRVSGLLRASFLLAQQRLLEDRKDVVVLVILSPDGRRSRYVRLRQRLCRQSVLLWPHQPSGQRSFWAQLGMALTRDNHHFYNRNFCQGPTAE
In short: (§1)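 Cells seeded per well (15000 TLR7, 20,000 TLR8, 25,000 TLR9); compound added over 0.05 nM–50 μM for 30 min at room temperature; agonist added (TLR7 gardiquimod 7.5 μM, TLR8 R848 15.9 μM, TLR9 ODN2006 5 nM); 22 h at 37 °C; SEAP measured; percent inhibition calculated.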

human TLR7 = target: T2, human TLR7 (Homo sapiens, UniProt Q9NYK1); experiment: TLR7 inhibition reporter assay (HEK-Blue cells, SEAP reporter, gardiquimod stimulation); conditions: HEK-Blue cells overexpressing human TLR7, SEAP reporter, gardiquimod 7.5 μM
T2 construct: host or cells: HEK-Blue cells (HEK293-derived reporter line)
T2 sequence (Q9NYK1 27-1049): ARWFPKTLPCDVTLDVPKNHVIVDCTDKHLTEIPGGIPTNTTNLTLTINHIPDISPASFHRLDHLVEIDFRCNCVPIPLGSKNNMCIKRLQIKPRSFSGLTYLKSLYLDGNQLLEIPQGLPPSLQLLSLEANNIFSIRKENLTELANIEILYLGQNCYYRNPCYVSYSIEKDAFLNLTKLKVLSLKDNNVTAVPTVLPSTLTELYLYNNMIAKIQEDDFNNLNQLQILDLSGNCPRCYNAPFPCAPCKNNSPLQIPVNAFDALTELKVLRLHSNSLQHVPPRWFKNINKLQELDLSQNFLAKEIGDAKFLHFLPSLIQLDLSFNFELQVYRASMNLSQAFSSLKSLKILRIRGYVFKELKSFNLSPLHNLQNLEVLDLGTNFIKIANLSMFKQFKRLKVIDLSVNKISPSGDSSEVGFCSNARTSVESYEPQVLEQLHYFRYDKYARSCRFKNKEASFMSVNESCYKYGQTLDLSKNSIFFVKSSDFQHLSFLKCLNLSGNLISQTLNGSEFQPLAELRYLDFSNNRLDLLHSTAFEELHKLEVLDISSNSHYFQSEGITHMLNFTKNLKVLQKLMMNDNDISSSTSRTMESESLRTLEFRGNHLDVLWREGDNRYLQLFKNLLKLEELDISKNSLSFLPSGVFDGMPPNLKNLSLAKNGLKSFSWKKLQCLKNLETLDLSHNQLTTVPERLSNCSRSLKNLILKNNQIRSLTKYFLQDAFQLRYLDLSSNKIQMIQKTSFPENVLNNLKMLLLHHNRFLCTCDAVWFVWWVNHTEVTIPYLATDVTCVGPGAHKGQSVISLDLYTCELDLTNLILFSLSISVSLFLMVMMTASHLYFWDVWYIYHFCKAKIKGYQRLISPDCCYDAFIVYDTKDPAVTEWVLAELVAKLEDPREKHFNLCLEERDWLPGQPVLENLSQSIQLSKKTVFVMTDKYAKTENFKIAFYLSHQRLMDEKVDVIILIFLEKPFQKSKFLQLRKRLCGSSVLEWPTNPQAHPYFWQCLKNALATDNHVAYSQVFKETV
In short: as §1

human TLR8 = target: T3, human TLR8 (Homo sapiens, UniProt Q9NR97); experiment: TLR8 inhibition reporter assay (HEK-Blue cells, SEAP reporter, R848 stimulation); conditions: HEK-Blue cells overexpressing human TLR8, SEAP reporter, R848 15.9 μM
T3 construct: host or cells: HEK-Blue cells (HEK293-derived reporter line)
T3 sequence (Q9NR97 27-1041): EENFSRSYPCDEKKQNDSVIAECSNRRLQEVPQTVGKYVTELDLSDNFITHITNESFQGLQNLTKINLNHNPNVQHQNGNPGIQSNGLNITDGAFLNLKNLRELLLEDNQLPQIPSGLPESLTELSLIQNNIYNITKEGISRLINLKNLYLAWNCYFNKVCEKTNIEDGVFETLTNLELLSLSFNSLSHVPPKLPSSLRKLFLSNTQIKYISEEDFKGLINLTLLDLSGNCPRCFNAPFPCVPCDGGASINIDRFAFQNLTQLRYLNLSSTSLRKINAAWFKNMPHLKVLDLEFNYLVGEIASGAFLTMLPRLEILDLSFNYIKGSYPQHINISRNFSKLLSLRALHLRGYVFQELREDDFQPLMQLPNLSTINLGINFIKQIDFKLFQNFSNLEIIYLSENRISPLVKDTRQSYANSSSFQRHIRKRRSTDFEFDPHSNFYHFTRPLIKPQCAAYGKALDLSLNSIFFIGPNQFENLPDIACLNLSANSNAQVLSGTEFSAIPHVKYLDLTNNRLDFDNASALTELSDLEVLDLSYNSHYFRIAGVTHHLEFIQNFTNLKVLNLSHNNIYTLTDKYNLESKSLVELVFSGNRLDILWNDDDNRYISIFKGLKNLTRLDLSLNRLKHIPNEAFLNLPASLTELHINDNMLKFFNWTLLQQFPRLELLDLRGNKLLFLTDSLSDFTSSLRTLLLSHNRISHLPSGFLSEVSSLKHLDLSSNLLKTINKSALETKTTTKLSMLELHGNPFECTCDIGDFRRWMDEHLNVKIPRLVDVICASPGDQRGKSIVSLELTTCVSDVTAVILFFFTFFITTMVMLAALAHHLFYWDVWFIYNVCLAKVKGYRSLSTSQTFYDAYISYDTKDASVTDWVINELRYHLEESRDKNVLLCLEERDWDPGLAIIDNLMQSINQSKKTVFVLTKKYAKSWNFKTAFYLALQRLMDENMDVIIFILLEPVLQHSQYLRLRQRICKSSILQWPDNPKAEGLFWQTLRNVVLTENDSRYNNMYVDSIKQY
In short: as §1

Structure (SMILES) | IC50 (human TLR9) [nM] | IC50 (human TLR7) [nM] | IC50 (human TLR8) [nM]
CC(C)c1c(-c2ccnc3[nH]ncc23)[nH]c2ccc(C3CCN(Cc4csc(N)n4)CC3)cc12 [Example 925, 4-((4-(3-isopropyl-2-(1H-pyrazolo[3,4-b]pyridin-4-yl)-1H-indol-5-yl)piperidin-1-yl)methyl)thiazol-2-amine] | 1000 to 50000 | < 100 | < 100
Cc1cc(-c2[nH]c3ccc(C4CCNCC4)cc3c2C(C)C)c(C)n2nnnc12 [Example 74, 6-(3-isopropyl-5-(piperidin-4-yl)-1H-indol-2-yl)-5,8-dimethyltetrazolo[1,5-a]pyridine] | 1000 to 50000 | < 100 | < 100
Cc1cc(-c2[nH]c3ccc(C4CCN(CC(=O)N(C)C)CC4)cc3c2C(C)C)cn2cc(C(=O)N(C)CCO)nc12 [Example 344, 6-(5-(1-(2-(dimethylamino)-2-oxoethyl)piperidin-4-yl)-3-isopropyl-1H-indol-2-yl)-N-(2-hydroxyethyl)-N,8-dimethylimidazo[1,2-a]pyridine-2-carboxamide] | 1000 to 50000 | < 100 | < 100
CC(C)c1c(-c2cn(C)c3ncccc23)[nH]c2ccc(C3CCN(C4COC4)CC3)cc12 [Example 733, 3-(3-isopropyl-5-(1-(oxetan-3-yl)piperidin-4-yl)-1H-indol-2-yl)-1-methyl-1H-pyrrolo[2,3-b]pyridine] | 1000 to 50000 | < 100 | < 100
Cc1cc(-c2[nH]c3ccc(C4CCN(C(=O)CN5CCC(F)(F)CC5)CC4)cc3c2C(C)C)cn2nnnc12 [Example 482, 2-(4,4-difluoropiperidin-1-yl)-1-(4-(3-isopropyl-2-(8-methyltetrazolo[1,5-a]pyridin-6-yl)-1H-indol-5-yl)piperidin-1-yl)ethan-1-one] | > 50000 | < 100 | 100 to 1000
Cc1cc(-c2[nH]c3ccc(C4CCN(C5CCOCC5)CC4)cc3c2C(C)C)cc2cccnc12 [Example 704, 6-(3-isopropyl-5-(1-(tetrahydro-2H-pyran-4-yl)piperidin-4-yl)-1H-indol-2-yl)-8-methylquinoline] | 1000 to 50000 | < 100 | 100 to 1000
Cc1cc(-c2[nH]c3ccc(C4CCN(CC(=O)N(C)C)CC4)cc3c2C(C)C)c(C)n2nnnc12 [Example 310, 2-(4-(2-(5,8-dimethyltetrazolo[1,5-a]pyridin-6-yl)-3-isopropyl-1H-indol-5-yl)piperidin-1-yl)-N,N-dimethylacetamide] | 1000 to 50000 | < 100 | < 100
CC(C)c1c(-c2cnc3ncnn3c2)[nH]c2ccc(C3CCN(C(=O)CN(C)C)CC3)cc12 [Example 554, 1-(4-(2-([1,2,4]triazolo[1,5-a]pyrimidin-6-yl)-3-isopropyl-1H-indol-5-yl)piperidin-1-yl)-2-(dimethylamino)ethan-1-one] | 1000 to 50000 | < 100 | 100 to 1000
CC(C)c1c(-c2ccc3scnc3c2)[nH]c2ccc(C3CCNCC3)cc12 [Example 12, 5-(3-isopropyl-5-(piperidin-4-yl)-1H-indol-2-yl)benzo[d]thiazole] | 100 to 1000 | 100 to 1000 | 1000 to 50000
CCc1c(C)c(-c2[nH]c3ccc(C4CCN(CC(C)(C)O)CC4)cc3c2C(C)C)cn2ccnc12 [Example 777, 1-(4-(2-(8-ethyl-7-methylimidazo[1,2-a]pyridin-6-yl)-3-isopropyl-1H-indol-5-yl)piperidin-1-yl)-2-methylpropan-2-ol] | 100 to 1000 | < 100 | < 100
CC(C)c1c(-c2ccnc3[nH]ncc23)[nH]c2ccc(C3CCN(C(=O)CN4CC[C@@H](N(C)C)C4)CC3)cc12 [Example 582, (R)-2-(3-(dimethylamino)pyrrolidin-1-yl)-1-(4-(3-isopropyl-2-(1H-pyrazolo[3,4-b]pyridin-4-yl)-1H-indol-5-yl)piperidin-1-yl)ethan-1-one] | 100 to 1000 | < 100 | < 100
CC(C)c1c(-c2cn(C)c3ncccc23)[nH]c2ccc(C3CCN(CC(=O)N(C)C)CC3)cc12 [Example 295, 2-(4-(3-isopropyl-2-(1-methyl-1H-pyrrolo[2,3-b]pyridin-3-yl)-1H-indol-5-yl)piperidin-1-yl)-N,N-dimethylacetamide] | 1000 to 50000 | < 100 | < 100
CC(C)c1c(-c2cc(C(F)(F)F)c3nccn3c2)[nH]c2ccc(C3CCN(CC(=O)N(C)C)CC3)cc12 [Example 372, 2-(4-(3-isopropyl-2-(8-(trifluoromethyl)imidazo[1,2-a]pyridin-6-yl)-1H-indol-5-yl)piperidin-1-yl)-N,N-dimethylacetamide] | 1000 to 50000 | < 100 | < 100
CC(C)c1c(-c2ccn3cnnc3c2)[nH]c2ccc(C3CCN(C(=O)CN(C)C)CC3)cc12 [Example 466, 1-(4-(2-([1,2,4]triazolo[4,3-a]pyridin-7-yl)-3-isopropyl-1H-indol-5-yl)piperidin-1-yl)-2-(dimethylamino)ethan-1-one] | 100 to 1000 | < 100 | 100 to 1000
